Results taken from the supplement of paper PMC10307832.

Columns and labels:
Test in all cases: relative viability (nuclei count vs DMSO), 5 days (fraction); higher = more cells survive
QS11 + Dasatinib = compound: C1CC2=C(C1)C=C(C=C2)OC3=NC(=C4C(=N3)N(C=N4)CC5=CC=C(C=C5)C6=CC=CC=C6)N[C@@H](CC7=CC=CC=C7)CO [QS11] + Cc1nc(Nc2ncc(C(=O)Nc3c(C)cccc3Cl)s2)cc(N2CCN(CCO)CC2)n1 [Dasatinib] (partner 0.075 µM)
Method in brief: (§1)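 Nuclei were stained with Hoechst during a one-step fixation (final 0.05% Triton X-100, 1% formaldehyde, 1 ug/ml Hoechst) carried out 5 days after dosing, then counted on 4× images. The cells, lung cancer lines in 1536-well plates, had been dosed by pin tool the day after seeding with one drug alone or a fixed anchor-drug dose plus five library-drug doses (not always all listed) in √10 steps. Relative viability is the nuclei count in treated wells divided by that in vehicle wells, and each value is the median of duplicate plates.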

AZ628 + Dasatinib = compound: CC1=C(C=C(C=C1)NC(=O)C2=CC(=CC=C2)C(C)(C)C#N)NC3=CC4=C(C=C3)N=CN(C4=O)C [AZ628] + Cc1nc(Nc2ncc(C(=O)Nc3c(C)cccc3Cl)s2)cc(N2CCN(CCO)CC2)n1 [Dasatinib] (partner 0.075 µM)
Method in brief: as §1

Darinaparsin + Lapatinib = compound: C[As](C)SC[C@H](NC(=O)CC[C@H](N)C(=O)O)C(=O)NCC(=O)O [Darinaparsin] + CS(=O)(=O)CCNCc1ccc(-c2ccc3ncnc(Nc4ccc(OCc5cccc(F)c5)c(Cl)c4)c3c2)o1 [Lapatinib] (partner 2 µM)
Method in brief: as §1

[1] = compound: C[As](C)SC[C@H](NC(=O)CC[C@H](N)C(=O)O)C(=O)NCC(=O)O [Darinaparsin] + N=C(N)NC(=N)NCCc1ccccc1 [Phenformin] (partner 250 µM)
Method in brief: as §1

Cell Line	relative viability (QS11 + Dasatinib; first compound 0.08 µM)	relative viability (QS11 + Dasatinib; first compound 0.253 µM)	relative viability (QS11 + Dasatinib; first compound 0.8 µM)	relative viability (QS11 + Dasatinib; first compound 2.53 µM)	relative viability (QS11 + Dasatinib; first compound 8 µM)	relative viability (AZ628 + Dasatinib; first compound 0.08 µM)	relative viability (AZ628 + Dasatinib; first compound 0.253 µM)	relative viability (AZ628 + Dasatinib; first compound 0.8 µM)	relative viability (AZ628 + Dasatinib; first compound 2.53 µM)	relative viability (AZ628 + Dasatinib; first compound 8 µM)	relative viability (Darinaparsin + Lapatinib; first compound 0.08 µM)	relative viability (Darinaparsin + Lapatinib; first compound 0.8 µM)	relative viability (Darinaparsin + Lapatinib; first compound 2.53 µM)	relative viability (Darinaparsin + Lapatinib; first compound 8 µM)	relative viability ([1]; first compound 0.08 µM)	relative viability ([1]; first compound 0.8 µM)	relative viability ([1]; first compound 2.53 µM)	relative viability ([1]; first compound 8 µM)
NCI-H23	0.809	0.673	0.738	0.654	0.712	0.708	0.75	0.44	0.509	0.302	1.54	0.999	1.22	1.38	0.935	0.839	0.86	0.842
NCI-H322M	0.264	0.261	0.27	0.292	0.318	0.28	0.261	0.264	0.231	0.268	0.611	0.603	0.52	0.603	0.886	0.795	0.663	0.795
NCI-H358	0.144	0.171	0.189	0.393	0.656	0.184	0.124	0.136	0.161	0.1	0.463	0.412	0.422	0.52	0.429	0.387	0.331	0.376
NCI-H460	0.523	0.462	0.329	0.359	0.291	0.569	0.428	0.362	0.407	0.132	1.03	1.3	0.731		0.553	0.557	0.506	0.884
NCI-H520	0.186	0.254	0.191	0.208	0.167	0.254	0.189	0.325	0.18	0.215	1.11	0.817	0.802	0.794	0.669	0.481	0.453	0.625
NCI-H596	0.591	0.586	0.584	0.611	0.586	0.693	0.618	0.573	0.565	0.471	1.1	1.02	1.01	1.06	0.891	0.737	0.677	0.745
NCI-H647	0.164	0.219	0.216	0.184	0.205	0.193	0.173	0.217	0.14	0.15	1.28	0.926	0.833	1.42	0.62	0.479	0.474	0.696
NCI-H650	0.424	0.428	0.497	0.4	0.352	0.529	0.487	0.463	0.558	0.434	0.87	0.703	0.897	0.886	0.476	0.479	0.428	0.484
NCI-H661	0.794	0.804	0.891	0.798	0.711	0.87	0.644	0.629	0.666	0.659	0.509	0.584	0.513	0.511	0.261	0.25	0.299	0.275
NCI-H727	0.297	0.467	0.353	0.554	0.438	0.318	0.3	0.306	0.23	0.264	0.872	0.545	0.79	0.967	0.405	0.416	0.569	0.475
NCI-H838	0.271	0.312	0.357	0.27	0.276	0.287	0.291	0.297	0.274	0.284	1.23	0.835	0.831	1.32	0.596	0.508	0.486	0.638
NCI-H1355	0.702	0.526	0.673	0.817	0.794	0.723	0.663	0.611	0.626	0.458	1.11	0.845	0.893	1.17	0.45	0.459	0.382	0.412
NCI-H1395	0.387	0.361	0.382	0.408	0.419	0.411	0.426	0.416	0.423	0.362	1.3	0.949	1.03	1.37	0.457	0.471	0.409	0.459
NCI-H1437	0.397	0.347	0.404	0.531	0.391	0.415	0.242	0.275	0.43	0.39	1.15	0.769	0.719	0.974	0.327	0.298	0.358	0.281
NCI-H1563	0.448	0.417	0.44	0.409	0.426	0.477	0.436	0.469	0.487	0.475	1.01	1.02	0.914	1.14	0.773	0.619	0.658	0.642
NCI-H1650	0.288	0.27	0.329	0.308	0.284	0.319	0.366	0.318	0.296	0.249	1	0.764	0.779	0.938	0.472	0.416	0.494	0.395
NCI-H1651	0.486	0.306	0.333	0.495	0.291	0.517	0.384	0.408	0.392	0.535	1.01	0.881	0.759	1.09	0.351	0.302	0.298	0.357
NCI-H1666	0.783	0.839	0.568	0.583	0.528	0.812	0.733	0.669	0.665	0.668	0.763	0.587	0.59	0.701	0.623	0.545	0.617	0.575

Cell Line	relative viability (QS11 + Dasatinib; first compound 0.08 µM)	relative viability (QS11 + Dasatinib; first compound 0.253 µM)	relative viability (QS11 + Dasatinib; first compound 0.8 µM)	relative viability (QS11 + Dasatinib; first compound 2.53 µM)	relative viability (QS11 + Dasatinib; first compound 8 µM)	relative viability (AZ628 + Dasatinib; first compound 0.08 µM)	relative viability (AZ628 + Dasatinib; first compound 0.253 µM)	relative viability (AZ628 + Dasatinib; first compound 0.8 µM)	relative viability (AZ628 + Dasatinib; first compound 2.53 µM)	relative viability (AZ628 + Dasatinib; first compound 8 µM)	relative viability (Darinaparsin + Lapatinib; first compound 0.08 µM)	relative viability (Darinaparsin + Lapatinib; first compound 0.8 µM)	relative viability (Darinaparsin + Lapatinib; first compound 2.53 µM)	relative viability (Darinaparsin + Lapatinib; first compound 8 µM)	relative viability ([1]; first compound 0.08 µM)	relative viability ([1]; first compound 0.8 µM)	relative viability ([1]; first compound 2.53 µM)	relative viability ([1]; first compound 8 µM)
NCI-H1734	0.449	0.509	0.504	0.481	0.597	0.424	0.552	0.525	0.511	0.349	1.87	1.01	0.951	1.31	0.464	0.409	0.363	0.424
NCI-H1755	0.449	0.39	0.38	0.391	0.314	0.459	0.39	0.417	0.381	0.326	1.1	0.981	1.01	1.46	0.671	0.598	0.545	0.632
NCI-H1792	0.697	0.754	0.672	0.745	0.942	0.901	0.595	0.513	0.584	0.299	1.26	0.83	0.696	0.927	0.334	0.258		0.205
NCI-H1793	0.381	0.374	0.472	0.419	0.48	0.422	0.315	0.354	0.344	0.388	0.675	0.632	0.902	0.916	0.358	0.435	0.327	0.422
NCI-H1915	0.348	0.321		0.35	0.239	0.327	0.293	0.249	0.199	0.139	0.996	0.888	0.932	1.18	0.404	0.373	0.359	0.375
NCI-H1944	0.197	0.214		0.226	0.272	0.209	0.211	0.208	0.192	0.197	0.834	0.796	0.664	0.947	0.217	0.207	0.216	0.192
NCI-H1975	0.357	0.31	0.423	0.512	0.455	0.351	0.292	0.283	0.248	0.174	0.998	0.895	0.66	1.25	0.448	0.43	0.413	0.427
NCI-H1993	0.558	0.508	0.618	0.684	0.528	0.556	0.546	0.613	0.578	0.553	0.854	0.736	0.722	0.534	0.523	0.441	0.524	0.508
NCI-H2009	0.277	0.295	0.261	0.209	0.229	0.202	0.258	0.182	0.173	0.184	0.992	0.93	0.888	0.915	0.511	0.52	0.475	0.55
NCI-H2023	0.634	0.475	0.555	0.572	0.618	0.617	0.647	0.444	0.436	0.396	1	0.85	0.63	1.2	0.529	0.417	0.368	0.501
NCI-H2085	0.222	0.263	0.277	0.292	0.255	0.255	0.274	0.252	0.239	0.237	0.809	0.697	0.776	0.916	0.852	0.797	0.706	0.747
NCI-H2087	0.745	0.963		0.963	1.2	0.565	0.32	0.226	0.237	0.154	1.29	1.02	0.951	0.997	0.553	0.451	0.467	0.608
NCI-H2126	0.604	0.505	0.616	0.61	0.566	0.584	0.565	0.492	0.491	0.415	0.767	0.712	0.622	0.861	0.521	0.511	0.524	0.556
NCI-H2170	0.621	0.482	0.582	0.794	0.968	0.555	0.391	0.46	0.557	0.481	0.283	0.257	0.286	0.285	0.429	0.427	0.424	0.464
NCI-H2228	0.415	0.521	0.55	0.725	0.677	0.479	0.531	0.47	0.432	0.396	1.46	0.869	0.685	1.22	0.254	0.281	0.328	0.387
NCI-H2347	0.279	0.297	0.308	0.274	0.308	0.272	0.278	0.22	0.252	0.163	1.23	0.883	0.919	1.1	0.451		0.396	0.403
NCI-H2405	0.196	0.2	0.206	0.276	0.325	0.175	0.201	0.189	0.172	0.23	1.04	1.01	1.04	1.1	0.407	0.377	0.415	0.405
